The source of these data is patent publication US11731976B2, “3-(ethoxydifluoromethyl)-6-(5-fluoro-6-(2,2,2-trifluoroethoxy)pyridin-3-yl)-[1,2,4]triazolo[4,3-a]pyridine as an ion channel modulator” (Praxis Precision Medicines, Inc., priority 2018, dated 2023).

One may read the inhibition as the percentage by which the read-out fell short of the control.

The test system of one assay is Male CD-1 mice. The assay is described as follows: Maximal Electroshock induced Seizure (MES) assay in mice. The note with it: 35% HPCD, pre-treatment 30 min, recorded up to 60 seconds post stimulus. Format: in vivo, mouse. Here is the method:
Male CD-1 mice, weighing 25-35 g were assessed in the Maximal Electroshock induced Seizure (MES) assay. Briefly, mice were dosed with compound (n=12/group) according to the dosing parameters in Table 20 and the latency to induce tonic hind limb extension following transauricular electrical stimulation (50 Hz, 50 mA, 0.8 sec duration, pulse width of 10 ins) was recorded up to 60 seconds post stimulus.
Background: The maximal electroshock test induces tonic seizures with an electrical stimulus.

The target in the next assay is T1, human NaV1.6 (hNaV1.6) (Homo sapiens, UniProt Q9UQD0).
T1 construct: expressed in transfected cells; host or cells: HEK-293
T1 sequence (Q9UQD0 whole entry): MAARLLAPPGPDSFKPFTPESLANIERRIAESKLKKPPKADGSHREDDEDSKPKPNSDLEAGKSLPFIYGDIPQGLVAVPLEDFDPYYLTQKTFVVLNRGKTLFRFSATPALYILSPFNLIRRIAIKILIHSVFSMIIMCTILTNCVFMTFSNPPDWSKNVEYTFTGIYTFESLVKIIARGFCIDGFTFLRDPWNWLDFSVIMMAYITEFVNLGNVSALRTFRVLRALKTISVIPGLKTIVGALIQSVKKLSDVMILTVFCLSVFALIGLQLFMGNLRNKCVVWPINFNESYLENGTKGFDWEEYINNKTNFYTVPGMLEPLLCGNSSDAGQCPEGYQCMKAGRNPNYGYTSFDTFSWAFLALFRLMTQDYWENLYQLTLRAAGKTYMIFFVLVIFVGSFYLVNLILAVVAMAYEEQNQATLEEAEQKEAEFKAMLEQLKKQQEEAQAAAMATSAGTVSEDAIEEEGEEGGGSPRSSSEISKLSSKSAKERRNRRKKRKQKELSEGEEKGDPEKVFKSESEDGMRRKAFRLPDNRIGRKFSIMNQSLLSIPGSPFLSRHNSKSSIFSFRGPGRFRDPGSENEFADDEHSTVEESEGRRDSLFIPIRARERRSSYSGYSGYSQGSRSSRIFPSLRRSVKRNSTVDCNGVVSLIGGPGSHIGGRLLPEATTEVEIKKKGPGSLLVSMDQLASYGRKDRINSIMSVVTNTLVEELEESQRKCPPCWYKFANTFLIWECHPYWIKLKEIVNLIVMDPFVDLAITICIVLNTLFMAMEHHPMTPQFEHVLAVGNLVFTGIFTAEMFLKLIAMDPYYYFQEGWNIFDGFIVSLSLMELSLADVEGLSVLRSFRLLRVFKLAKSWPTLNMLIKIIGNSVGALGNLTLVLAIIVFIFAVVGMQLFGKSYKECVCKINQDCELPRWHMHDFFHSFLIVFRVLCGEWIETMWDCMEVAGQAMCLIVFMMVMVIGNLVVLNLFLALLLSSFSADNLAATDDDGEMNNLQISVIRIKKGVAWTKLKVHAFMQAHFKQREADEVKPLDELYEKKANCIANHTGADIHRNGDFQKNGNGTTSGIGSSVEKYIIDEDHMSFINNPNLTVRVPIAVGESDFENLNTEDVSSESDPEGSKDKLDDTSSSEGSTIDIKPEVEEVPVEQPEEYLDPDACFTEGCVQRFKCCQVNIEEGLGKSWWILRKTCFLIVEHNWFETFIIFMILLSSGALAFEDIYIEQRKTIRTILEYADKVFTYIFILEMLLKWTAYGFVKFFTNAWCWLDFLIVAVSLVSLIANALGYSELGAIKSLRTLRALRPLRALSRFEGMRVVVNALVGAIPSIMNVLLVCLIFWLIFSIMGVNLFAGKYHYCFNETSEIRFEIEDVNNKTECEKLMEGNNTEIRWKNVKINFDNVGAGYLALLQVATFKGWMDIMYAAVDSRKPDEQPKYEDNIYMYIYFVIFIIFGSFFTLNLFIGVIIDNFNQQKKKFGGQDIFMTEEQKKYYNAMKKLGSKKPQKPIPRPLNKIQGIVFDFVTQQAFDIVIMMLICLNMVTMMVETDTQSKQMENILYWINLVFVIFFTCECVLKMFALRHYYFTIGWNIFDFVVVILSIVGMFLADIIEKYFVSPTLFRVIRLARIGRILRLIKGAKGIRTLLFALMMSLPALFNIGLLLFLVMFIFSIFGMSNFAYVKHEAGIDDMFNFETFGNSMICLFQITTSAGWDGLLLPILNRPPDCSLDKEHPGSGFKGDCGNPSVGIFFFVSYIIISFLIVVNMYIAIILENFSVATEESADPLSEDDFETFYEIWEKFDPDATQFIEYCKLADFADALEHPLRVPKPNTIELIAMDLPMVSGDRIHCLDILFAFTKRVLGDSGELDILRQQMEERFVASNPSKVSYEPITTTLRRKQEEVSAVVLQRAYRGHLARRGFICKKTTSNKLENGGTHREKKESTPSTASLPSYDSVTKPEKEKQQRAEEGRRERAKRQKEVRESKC
The assay is described as follows: Modulation of late sodium current (INaL), PatchXpress electrophysiology, HEK-293 cells expressing hNaV1.6. The assay is classed as cell-based. The note with it: HEK293, late current evoked by 300 nM ATX-II, read-out: NaV 1.6 Assay Data: percent inhibition of INaL at hNaV1.6. The essentials: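 PatchXpress automated patch clamp on HEK-293 cells expressing recombinant hNaV1.6; late current enhanced with 300 nM ATX-II. INaL evoked by 200 ms steps to 0 mV from about −120 mV at 0.1 Hz, measured as mean amplitude over the final 20 ms. Percent steady-state inhibition versus control current.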

The next assay concerns the target T2, hNaV1.2-WT (Homo sapiens, UniProt Q99250).
T2 construct: expressed in transfected cells; host or cells: HEK-293
The experiment in a line: Voltage step activated sodium current (Peak INa), PatchXpress, HEK-293. Format: cell-based. The note with it: percent inhibition measured at 1 μM; step to 0 mV from half-inactivation holding potential. Here is the method:
(§1) Functional characterization of exemplary compounds to modulate INa expressed by various human isoforms and disease-causing mutant voltage-gated sodium channels was accomplished using the PatchXpress high throughput electrophysiology platform (Molecular Devices, Sunnyvale, Calif.). HEK-293 cells expressing a recombinant, human NaV1.X sodium channel (either hNaV1.6-WT, hNaV1.6-R223G, hNaV1.6-N984K, hNaV1.6-N1768D, hNaV1.1-WT, hNaV1.2-WT, hNaV1.5-WT, hNaV1.7-WT, or hNaV1.8-WT) were grown in DMEM/high-glucose Dulbecco's modified, 10% FBS, 2 mM sodium pyruvate, 10 mM HEPES and 400 μg/mL G418. Cells were grown to 50%-80% confluency prior to harvesting. Trypsinized cells were washed, allowed to recover for 1 hour and then resuspended in extracellular recording solution at a concentration of 1×10^6 cells/ml. The onboard liquid handling facility of the PatchXpress was used for dispensing cells and applying test compounds. INa amplitude and stability were determined by analyzing the peak current amplitude.
(§2) Peak INa was evoked by depolarizing steps to 0 mV for 20 ms from a holding potential which evoked half-inactivation (e.g., −60 mV) at a frequency of 0.1 Hz. The voltage of half-inactivation was determined for each cell using a 5 sec prepulse to membrane potentials between −120 mV and −20 mV followed immediately by a voltage step to a fully activating membrane voltage (e.g., 0 mV). Following steady state block with exemplary compounds (e.g., as described herein), the degree of inhibition was measured using the average of three consecutive voltage steps. Percent steady-state inhibition of INa was calculated as: [(INa_compound)/(INa_control)]*100, where INa_compound and INa_control represent INa recorded in the presence or absence of compound, respectively.
(§3) In this table, “A” indicates inhibition between less than 0% to 50% and “B” indicates inhibition of greater than 50% and N/A indicates the compound was not tested.

The target in the next assay is T3, hNaV1.8-WT (Homo sapiens, UniProt Q9Y5Y9).
T3 construct: expressed in transfected cells; host or cells: HEK-293
The description is as above. The note with it: HEK293; percent inhibition measured at 1 μM; step to 0 mV from half-inactivation holding potential. The assay is classed as cell-based. Here is the method: as §1, §2, §3

The target in another assay is T4, hNaV1.7-WT (Homo sapiens, UniProt Q15858).
T4 construct: expressed in transfected cells; host or cells: HEK-293
T4 sequence (Q15858 whole entry): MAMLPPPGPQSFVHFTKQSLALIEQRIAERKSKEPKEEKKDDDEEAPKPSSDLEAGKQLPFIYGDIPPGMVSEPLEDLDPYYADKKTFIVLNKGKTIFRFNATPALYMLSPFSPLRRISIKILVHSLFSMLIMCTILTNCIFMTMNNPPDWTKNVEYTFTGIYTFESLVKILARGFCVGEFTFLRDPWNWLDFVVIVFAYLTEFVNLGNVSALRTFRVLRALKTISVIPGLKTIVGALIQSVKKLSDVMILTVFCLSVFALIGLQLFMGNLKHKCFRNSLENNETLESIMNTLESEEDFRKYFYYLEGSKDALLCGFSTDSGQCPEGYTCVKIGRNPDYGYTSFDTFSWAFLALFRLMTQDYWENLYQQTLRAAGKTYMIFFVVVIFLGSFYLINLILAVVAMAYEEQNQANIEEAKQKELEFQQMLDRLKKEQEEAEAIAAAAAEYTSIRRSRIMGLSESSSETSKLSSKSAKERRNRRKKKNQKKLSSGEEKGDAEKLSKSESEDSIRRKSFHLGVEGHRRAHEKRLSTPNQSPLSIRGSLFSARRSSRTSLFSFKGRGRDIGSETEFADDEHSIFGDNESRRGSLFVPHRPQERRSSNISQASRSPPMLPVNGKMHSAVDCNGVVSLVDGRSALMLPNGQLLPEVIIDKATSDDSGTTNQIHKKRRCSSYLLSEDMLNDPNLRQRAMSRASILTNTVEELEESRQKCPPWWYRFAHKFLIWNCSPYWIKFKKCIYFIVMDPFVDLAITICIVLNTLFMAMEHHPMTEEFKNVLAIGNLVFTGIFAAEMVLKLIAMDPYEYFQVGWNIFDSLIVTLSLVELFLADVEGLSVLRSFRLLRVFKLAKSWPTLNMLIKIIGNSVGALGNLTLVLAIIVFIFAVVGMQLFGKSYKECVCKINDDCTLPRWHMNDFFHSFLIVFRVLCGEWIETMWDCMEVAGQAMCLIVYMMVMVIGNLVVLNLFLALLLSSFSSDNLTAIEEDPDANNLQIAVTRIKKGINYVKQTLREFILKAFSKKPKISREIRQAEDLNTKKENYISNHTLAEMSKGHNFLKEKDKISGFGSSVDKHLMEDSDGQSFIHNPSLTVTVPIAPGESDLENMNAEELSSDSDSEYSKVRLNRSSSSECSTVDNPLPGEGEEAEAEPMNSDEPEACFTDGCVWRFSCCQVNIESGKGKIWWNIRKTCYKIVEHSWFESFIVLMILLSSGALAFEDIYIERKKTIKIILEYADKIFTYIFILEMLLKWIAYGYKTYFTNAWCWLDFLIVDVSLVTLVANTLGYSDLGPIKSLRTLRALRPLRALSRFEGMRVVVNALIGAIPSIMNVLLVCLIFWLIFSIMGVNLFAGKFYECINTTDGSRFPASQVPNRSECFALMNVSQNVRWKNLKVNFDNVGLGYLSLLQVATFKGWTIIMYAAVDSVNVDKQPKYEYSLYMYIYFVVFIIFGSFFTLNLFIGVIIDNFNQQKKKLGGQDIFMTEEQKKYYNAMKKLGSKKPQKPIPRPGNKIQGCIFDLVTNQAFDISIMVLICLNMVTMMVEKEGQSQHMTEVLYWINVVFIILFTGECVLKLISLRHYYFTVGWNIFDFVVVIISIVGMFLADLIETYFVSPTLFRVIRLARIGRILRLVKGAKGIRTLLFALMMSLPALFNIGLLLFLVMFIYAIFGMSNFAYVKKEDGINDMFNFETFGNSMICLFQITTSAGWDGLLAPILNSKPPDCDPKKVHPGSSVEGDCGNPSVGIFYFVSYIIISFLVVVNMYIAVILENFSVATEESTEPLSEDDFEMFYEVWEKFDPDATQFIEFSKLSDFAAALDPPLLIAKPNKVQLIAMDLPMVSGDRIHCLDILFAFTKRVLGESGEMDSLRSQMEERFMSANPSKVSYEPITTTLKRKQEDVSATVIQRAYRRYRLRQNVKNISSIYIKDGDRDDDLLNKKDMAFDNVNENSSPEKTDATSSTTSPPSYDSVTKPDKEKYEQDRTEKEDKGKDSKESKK
The assay is described as above. Format: cell-based. The note with it: HEK293; percent inhibition measured at 1 μM; step to 0 mV from half-inactivation holding potential. As for the experimental part:
as §1, §2, §3

The next assay deals with T5, hNaV1.1-WT (Homo sapiens, UniProt P35498).
T5 construct: expressed in transfected cells; host or cells: HEK-293
The assay is described as above. The note with it: percent inhibition measured at 1 μM; step to 0 mV from half-inactivation holding potential. The assay is classed as cell-based. Here is the method: as §1, §2, §3

Another assay addresses T6, hNaV1.6-WT (Homo sapiens, UniProt Q9UQD0).
T6 construct: expressed in transfected cells; host or cells: HEK-293
The assay is described as above. The note with it: HEK293; percent inhibition measured at 1 μM; step to 0 mV from half-inactivation holding potential. Format: cell-based. As for the experimental part: as §1, §2, §3

In a further assay the target is T7, hNaV1.5-WT (Homo sapiens, UniProt Q14524).
T7 construct: expressed in transfected cells; host or cells: HEK-293
The assay is described as above. The note with it: HEK293; percent inhibition measured at 1 μM; step to 0 mV from half-inactivation holding potential. Format: cell-based. As for the experimental part:
as §1, §2, §3

For assay [1], the target named is T8, human NaV 1.2 (h NaV 1.2) (Homo sapiens, UniProt Q99250).
T8 construct: expressed in transfected cells; host or cells: HEK-293
The assay is described as follows: Modulation of late sodium current (INaL), PatchXpress electrophysiology, HEK-293 cells expressing hNaV1.2. Format: cell-based. The conditions noted are these: HEK293, read-out: NaV 1.2 Assay Data: percent inhibition of INaL at hNaV1.2.

Another assay addresses T9, hNaV1.6-R223G (Homo sapiens, UniProt Q9UQD0, R223G).
T9 construct: expressed in transfected cells; host or cells: HEK-293
The experiment in a line: Voltage ramp activated sodium current (Ramp INa), PatchXpress, HEK-293. The note with it: HEK293; percent inhibition of enhanced ramp current at 1 μM; +600 mv/sec ramp from −100 mV to +20 mV. The assay is classed as cell-based. As for the experimental part: as §1
(§4) The Nav1.6 mutant channels (hNaV1.6-R223G, hNaV1.6-N984K, hNaV1.6-N1768D) express an enhanced sodium current in response to a ramp voltage depolarization when compared to the wild-type hNaV1.6-WT. This enhanced, depolarizing ramp current is thought to contribute to enhanced neuronal excitability. The degree of block with exemplary compounds (e.g., as described herein) was measured using a +600 mv/sec voltage ramp from −100 mV to +20 mV. The ramp current was defined as the area of the current measured between −55 mV and +15 mV. Following steady state block with exemplary compounds (e.g., as described herein) at 1 μM, a Na^+ free solution containing an impermeant cation (e.g., Choline or NMDG) was added for determination of the baseline current level for offline subtraction. Percent inhibition of enhanced ramp current was calculated as (compound−baseline)/(control−baseline)*100, where control represents the ramp current recorded in the absence of compound. In this table, “A” indicates inhibition between less than 0% to 50% and “B” indicates inhibition of greater than 50% and N/A indicates the compound was not tested.

The target in another assay is T10, hNaV1.6-N1768D (Homo sapiens, UniProt Q9UQD0, N1768D).
T10 construct: expressed in transfected cells; host or cells: HEK-293
T10 sequence (Q9UQD0 whole entry N1768D): as the sequence (Q9UQD0 whole entry) above, with N1768D counted along it
Described as above. Format: cell-based. The note with it: HEK293; percent inhibition of enhanced ramp current at 1 μM; +600 mv/sec ramp from −100 mV to +20 mV. As for the experimental part: as §1, §4

In another assay the target is T11, hNaV1.6-N984K (Homo sapiens, UniProt Q9UQD0, N984K).
T11 construct: expressed in transfected cells; host or cells: HEK-293
T11 sequence (Q9UQD0 whole entry N984K): as the sequence (Q9UQD0 whole entry) above, with N984K counted along it
The assay is described as above. Format: cell-based. The conditions noted are these: HEK293; percent inhibition of enhanced ramp current at 1 μM; +600 mv/sec ramp from −100 mV to +20 mV. Here is the method: as §1, §4

T9 sequence (Q9UQD0 whole entry R223G): as the sequence (Q9UQD0 whole entry) above, with R223G counted along it
T6 sequence (Q9UQD0 whole entry): as the sequence (Q9UQD0 whole entry) above

Regarding `COC(F)(F)c1nnc2cnc(-c3cnc(OCC(F)(F)F)c(F)c3)cn12` [Compound 53, 3-[difluoro(methoxy)methyl]-6-[5-fluoro-6-(2,2,2-trifluoroethoxy)-3-pyridyl]-[1,2,4]triazolo[4,3-a]pyrazine], the “Mean latency to tonic extension” value in the assay with Male CD-1 mice (1 mg/kg PO) turned out to be 36.4 s; with Male CD-1 mice (3 mg/kg PO) it was 60 s; with Male CD-1 mice (10 mg/kg PO), 60 s. The inhibition at 1 µM at human NaV1.6 (hNaV1.6) is more than 70%; against hNaV1.8-WT it was more than 50%; at hNaV1.7-WT, more than 50%; at hNaV1.6-WT, more than 50%; against hNaV1.5-WT it was more than 50%; in assay [1] it was more than 70%. Also, the inhibition at 1 µM at hNaV1.6-R223G is less than 50%; at hNaV1.6-N1768D it was more than 50%; at hNaV1.6-N984K it was less than 50%. The “hNav1.2 Peak INa” value on hNaV1.2-WT is “A (inhibition between less than 0% to 50%)”. Moreover, on hNaV1.1-WT, the “hNav1.1 Peak INa” value was “B (inhibition of greater than 50%)”.

In the case of `COC(F)(F)c1nnc2cnc(-c3ccc(O[C@H](C)C(F)(F)F)nc3)cn12` [Compound 62, 3-[difluoro(methoxy)methyl]-6-[6-[(1R)-2,2,2-trifluoro-1-methyl-ethoxy]-3-pyridyl]-[1,2,4]triazolo[4,3-a]pyrazine], the “Mean latency to tonic extension” value with Male CD-1 mice (1 mg/kg PO) came out at 17.6 s; with Male CD-1 mice (3 mg/kg PO) it was 46.1 s. Moreover, the inhibition at 1 µM at human NaV1.6 (hNaV1.6) is more than 70%; on hNaV1.8-WT, more than 50%; at hNaV1.7-WT, more than 50%; against hNaV1.6-WT it was more than 50%; at hNaV1.5-WT it was more than 50%; in [1], more than 70%. Besides, the inhibition at 1 µM is less than 50% at hNaV1.6-R223G, more than 50% at hNaV1.6-N1768D and more than 50% at hNaV1.6-N984K. Further, the “hNav1.2 Peak INa” value on hNaV1.2-WT was “B (inhibition of greater than 50%)”. Also, the “hNav1.1 Peak INa” value at hNaV1.1-WT is on record as “B (inhibition of greater than 50%)”.
